Results from patent publication US6518262B1, “22R-hydroxycholesta-8, 14-diene derivatives for the inhibition of meiosis” (Akzo Nobel N.V., priority 1999, dated 2003).

Test system: cumulus enclosed oocytes (CEO)
Experiment: Oocyte assay, antagonistic testing, inhibition of 22S-hydroxy-FF-Mas induced maturation in cumulus enclosed oocytes (CEO assay)
Type: cell-based, mice (B6D2-F1, strain C57BL×DBA)
Settings: 22S-hydroxy-FF-Mas 5 μM, control (22S-hydroxy-FF-Mas alone) in brackets
Method: The meiosis inhibiting activity of the 22R-hydroxycholesta-8,14-diene derivatives of the invention is measured in an in vitro oocyte assay as the ability to inhibit the FF-Mas or 22S-hydroxy-FF-Mas induced maturation, in hypoxanthine media, in denuded oocytes (DO) or cumulus enclosed oocytes (CEO), respectively. Natural resumption of meiosis can be mimicked in vitro by addition of FF-Mas or other agonists to the culture medium containing hypoxanthine. The antagonistic activity of the compounds is measured as the ability to inhibit the FF-Mas or 22S-hydroxy-FF-Mas induced oocyte maturation in denuded oocytes or cumulus enclosed oocytes, respectively, in vitro. Ovaries are obtained from immature female mice (B6D2-F1, strain C57BL×DBA). At the age of 19, 20 or 21 days the mice are injected subcutaneously with a single dose of 20 IU follicle stimulating hormone (Humegon, Organon, The Netherlands) in saline. Forty-eight hours after follicle stimulating hormone injection mice are killed by cervical dislocation. The ovaries are removed, freed of extraneous tissue and placed in a multidish containing 0.5 ml preparation medium at 37° C. L-15 Leibovitz medium (Gibco, pH 7.3±0.1) supplemented with bovine serum albumin (3 mg·ml^−1), L-glutamine (0.23 mM), sodium pyruvate (2 mM) and hypoxanthine (4 mM) is used as preparation medium. The antral follicles of the ovaries are punctured under a dissecting microscope using two 27-gauge needles attached to two 1 ml syringes. […] At t=0 the number of oocytes with intact germinal vesicles (GV) or germinal vesicle break-down (GVBD) is counted under an inverted microscope with differential interference contrast equipment. […] At the end of the culture period the number of oocytes with GV or GVBD per group is counted. For statistical analysis the percentage germinal vesicle breakdown is calculated for each group in one block. These percentages are subjected to arcsin transformation, and differences between control and test compounds are analyzed by an ANOVA test for a randomized block design. […]

Row | Compound | % GVBD CEO assay exp. | % GVBD CEO assay exp. (compound tested 5 M)
1 | CC(C)=CC[C@@H](O)[C@@H](C)[C@H]1CC=C2C3=C(CC[C@@]21C)[C@@]1(C)CC[C@H](O)C(C)(C)[C@@H]1CC3 [Example 2, (3β,5α,20S,22R)-4,4-Dimethylcholesta-8,14,24-triene-3,22-diol] | 0(84)^4% | –
2 | CC(C)CC[C@@H](O)[C@@H](C)[C@H]1CC=C2C3=C(CC[C@@]21C)[C@@]1(C)CC[C@H](O)C(C)(C)[C@@H]1CC3 [Example 1, (3β,5α,20S,22R)-4,4-Dimethylcholesta-8,14-diene-3,22-diol] | – | 10(93)^3%
